Data reported in article PMC10672942 (2023).

Experiments:
pApU (RNA, polymer) A/U [1] = experiment: UV melting at 260 nm; settings: Na+ (sodium cacodylate 50 mM); pH 7.0; r = 0.3 [peptide]/[phosphate], polynucleotide 2.0 × 10^-5 M; free Tm 48.9 °C; per base
pApU (RNA, polymer) A/U [2] = experiment: fluorescence titration; settings: Na+ (sodium cacodylate 50 mM); pH 7.0, 25 °C; Scatchard fit, fixed n = 0.3; per base
[3] = tested on: p(dAdT)2 (DNA, polymer) AT; experiment: fluorescence titration; settings: Na+ (sodium cacodylate 50 mM); pH 7.0, 25 °C; Scatchard fit, fixed n = 0.3; per base
[4] = tested on: p(dGdC)2 (DNA, polymer) GC; experiment: fluorescence titration; settings: Na+ (sodium cacodylate 50 mM); pH 7.0, 25 °C; Scatchard fit, fixed n = 0.3; per base
[5] = tested on: ds-dA10-dT10 (oligoAT10) (DNA, duplex) AAAAAAAAAA/TTTTTTTTTT; experiment: HPLC after irradiation at 300 nm; settings: ammonium acetate 100 mM; covalent; photoalkylation via quinone methide, 15 and 60 min, pH 7.0

Row | ΔTm (pApU (RNA, polymer) A/U [1]) [°C] | logKa (pApU (RNA, polymer) A/U [2]) | logKa [3] | logKa [4] | binding [5] | SMILES
1 | 1.9 ± 0.6 | 6.8 | > 7 | 6.7 |  | CN(C)Cc1cc(C[C@H](NC(=O)[C@@H](N)CNC(=O)c2ccc3ccc4cccc5ccc2c3c45)C(=O)OCc2ccccc2)ccc1O
2 | 1.4 ± 0.2 | 6.9 | 6.8 | 6.6 | yes | CN(C)Cc1cc(C[C@H](NC(=O)[C@@H](N)CCCCNC(=O)c2ccc3ccc4cccc5ccc2c3c45)C(=O)OCc2ccccc2)ccc1O
